Experimental data: paper PMC11239830, “Synthetic macrolides overcoming MLSBK-resistant pathogens” (Cell Discovery, 2024)
Values after ≈ are worked out from the molar mass of the structure shown. Like-named read-outs stand apart in the source and are kept apart here.

Tests used:
[1] = In vivo pharmacokinetic study; set-up: species or system SD rats; settings: SD (Sprague-Dawley), rat, iv, plasma
Method: The SD rats were fasted overnight and dosed i.v. at a dose of 5 mg/kg in a solution of DMSO/PEG 400/water (5%/24%/71%). The whole blood was collected into tubes containing sodium heparin at 0.083 h, 0.25 h, 0.5 h, 1 h, 2 h, 4 h, 8 h and 24 h after dosing. After centrifugation of 6000 rpm for 10 min at 4 °C, plasma samples were transferred into 1.5 mL tubes and stored at –20 °C. Prior to analysis, the samples were thawed on ice. An amount of 50 μL of each plasma sample was added to a mixture of 50 μL of propranolol (300 ng/mL) and 100 μL of acetonitrile and centrifuged at 12,000 rpm at 4 °C for 10 min. The supernatant was diluted and analyzed by LC-MS/MS. The liquid chromatography was conducted on a Thermo Scientific Q Exactive HF-X (ThermoFisher Scientific, USA) instrument, employing an ACQUITY UPLC BEH C18 Column with dimensions of 130 Å, 1.7 µm, 2.1 mm × 100 mm. The liquid phase method employed gradient elution with mobile phases consisting of acetonitrile and an 0.1% aqueous formic acid solution. Mass spectrometry was conducted in positive ion mode. The quantification of drug concentration in plasma samples was performed using the internal standard method, and the obtained pharmacokinetic parameters were calculated using Phoenix WinNonlin software.

[2] = system: S. aureus; test: MICs and MBCs against selected S. aureus isolates; assay type: cell-based, Staphylococcus aureus
[3] = system: S. aureus; test: Time-kill kinetics assay; assay type: cell-based, Staphylococcus aureus
Method: To further determine the bactericidal activity of MCX-219, a time-kill assay was performed according to the method described previously. The S. aureus cultured overnight was diluted 10^4 times with CAMHB broth and incubated for 2 h. […] The number of colonies was measured at 0 h, 1 h, 3 h, 6 h, 9 h and 24 h. A flask containing bacteria left unexposed to antibiotic was used as blank control, and telithromycin was used as the positive drug (comparator drug).

[4] = system: E. coli S30 extract protein synthesis; test: In vitro E. coli transcription/translation assay; assay type: biochemical; settings: cell-free transcription/translation, materials from E. coli
Excerpt: The in vitro transcription/translation assay for E. coli utilized materials from the E. coli S30 extract system for circular DNA (L1020, Promega, USA). This kit contains all the necessary components for efficient transcription and translation of a user-provided DNA template. To test the inhibition of protein synthesis, the assay uses plasmid pBESTluc, which contains the firefly luciferase gene, as the DNA template. The intensity of luminescence resulting from luciferase expression corresponds to the efficiency of protein synthesis. The luminescence intensity was quantified in the presence or absence of the tested compounds. […] This experiment was repeated twice independently.

[5] = system: human ribosome (HEK293F whole-cell lysate); test: Mammalian cell-free in vitro translation assay; assay type: biochemical; settings: human ribosomes, read-out: IC50, translation of Fluc mRNA
Method: For the in vitro translation assay, the whole-cell extract was derived from cultured HEK293F cells. The translation reactions were conducted in a total volume of 10 μL, comprising 4 μL of the HEK293F extract, 1 μL 10× Translation Buffer containing 160 mM HEPESs-KOH (pH 7.6), 100 mM Creatine phosphate, 1 mM Spermidine, 10 mM ATP, 1 mM GTP, 20 mM DTT, 800 ng/μL CKM, 600 mM KOAc, 30 mM Mg(OAc)2 and 200 μM Amino acids. The reaction mixture also included 2 U of RiboLock RNase inhibitor (ThermoFisher Scientific), 0.5 mM D-luciferin (Promega), 1 μL of either antibiotic solution or solvent (water or 10% DMSO), as specified, and 100 ng mRNA (added as a 1 μL water solution after pre-incubation of the reaction mixture with antibiotic for 5 min at 30 °C). Following the addition of mRNA, the mixtures were transferred to a pre-heated 96-well CELL CULTER PLATE (WHB), sealed with a PCR plate seal, and incubated in the CLARIOstar plate reader (BMG Labtech) at 37 °C with continuous luciferase activity measurement, following established procedures[66],[67]. Luciferase activity values were determined based on light intensities at 60 min.

[6] = system: H. influenzae; test: MIC, broth microdilution; assay type: cell-based, Haemophilus influenzae
Outline: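 Incubation ran for 16–20 h at 37 °C after setup per Clinical and Laboratory Standards Institute microdilution procedure. Growth was then observed to assign the MIC. Assays were replicated at least three times.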

[7] = system: HEK293T cells; test: CCK-8 assay for cytotoxicity; assay type: cell-based, human; settings: 48 h; for cytotoxicity at 5 μM: HEK293T
Outline: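 Cells seeded at 6 × 10^3 (HepG2) or 4 × 10^3 (HEK293T) per well in DMEM/10% FBS, treated after overnight culture with compound dilutions for 48 h. Viability read with CCK-8 reagent; triplicate wells, three independent repeats.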

[8] = system: E. coli JW5503 ΔtolC pDualrep2; test: pDualrep2 dual-reporter assay; assay type: cell-based; settings: red = Katushka2S, translation inhibitors; green = RFP, DNA damage
[9] = Staphylococcus aureus, ATCC29213, S. aureus ATCC29213 (Table S10), read-out: MIC
[10] = Staphylococcus aureus, MRSA, strain 1, MRSA, i-ermA
[11] = Staphylococcus aureus, MRSA, strain 4, MRSA, i-ermA
[12] = Staphylococcus aureus, MRSA, strain 5, MRSA, i-ermC
[13] = Staphylococcus aureus, MRSA, strain 6, MRSA, c-ermB
[14] = Staphylococcus aureus, MRSA, strain 7, MRSA, c-ermB
[15] = Staphylococcus aureus, MRSA, strain 10, MRSA, c-ermB
[16] = Staphylococcus aureus, MRSA, strain 11, MRSA, c-ermB
[17] = Staphylococcus aureus, MSSA, strain 2, MSSA, i-ermC, read-out: MIC
[18] = Staphylococcus aureus, MSSA, strain 3, MSSA, i-ermC, read-out: MIC
[19] = Staphylococcus aureus, MSSA, strain 8, MSSA, c-ermB
[20] = Staphylococcus aureus, S. aureus ATCC29213, read-out: MBC
[21] = Staphylococcus aureus, strain 3, MSSA, i-ermC, read-out: MBC
[22] = Haemophilus influenzae, ATCC49247, H. influenzae ATCC49247, Azi-S, read-out: MIC

CC[C@H]1OC(=O)[C@H](C)[C@@H](OC(=O)NCCCCCCC#Cc2ccc3c(=O)c(C(=O)O)cn(C)c3c2)[C@H](C)[C@@H](O[C@@H]2O[C@H](C)C[C@H](N(C)C)[C@H]2O)[C@](C)(OC)C[C@@H](C)C(=O)[C@H](C)[C@H]2NC(=O)O[C@@]21C [MCX-219]
Cmax ([1]; male SD rats, i.v. 5 mg/kg): 15000 ± 2810 ng/mL
MRT ([1]; male SD rats, i.v. 5 mg/kg): 1.13 ± 0.0139 h
Tmax ([1]; male SD rats, i.v. 5 mg/kg): 4.8 min
half-life ([1]; male SD rats, i.v. 5 mg/kg): 3.92 ± 0.117 h
AUC(0-inf) ([1]; male SD rats, i.v. 5 mg/kg, mean ± SD, n 3): 7090 ± 1360 ng·h/mL
AUC(0-t) ([1]; male SD rats, i.v. 5 mg/kg, read-out: AUC0-24): 7080 ± 1360 ng·h/mL
clearance ([1]; male, 5 mg/kg): 12.2 mL/min/kg
MBC/MIC ([2]; S. aureus ATCC29213): 4
MIC [2, 9]: 0.25 µg/mL (≈ 0.258 µM)
MBC [2, 10]: 1 µg/mL (≈ 1.03 µM)
MIC [2, 10]: 0.25 µg/mL (≈ 0.258 µM)
MBC [2, 11]: 0.5 µg/mL (≈ 0.517 µM)
MIC [2, 11]: 0.12 µg/mL (≈ 0.124 µM)
MBC [2, 12]: 2 µg/mL (≈ 2.07 µM)
MIC [2, 12]: 1 µg/mL (≈ 1.03 µM)
MBC [2, 13]: 16 µg/mL (≈ 16.5 µM)
MIC [2, 13]: 2 µg/mL (≈ 2.07 µM)
MBC [2, 14]: > 16 µg/mL
MIC [2, 14]: 2 µg/mL (≈ 2.07 µM)
MBC [2, 15]: 16 µg/mL (≈ 16.5 µM)
MIC [2, 15]: 4 µg/mL (≈ 4.14 µM)
MBC [2, 16]: > 16 µg/mL
MIC [2, 16]: 2 µg/mL (≈ 2.07 µM)
MIC [2, 17]: 0.25 µg/mL (≈ 0.258 µM)
MIC [2, 18]: 0.25 µg/mL (≈ 0.258 µM)
MBC [2, 19]: 16 µg/mL (≈ 16.5 µM)
MIC ([2]; Staphylococcus aureus, MSSA, strain 8, MSSA, c-ermB, read-out: MIC): 4 µg/mL (≈ 4.14 µM)
MIC ([2]; Staphylococcus aureus, MSSA, strain 9, MSSA, c-ermB, read-out: MIC): 0.5 µg/mL (≈ 0.517 µM)
MBC [2, 20]: 1 µg/mL (≈ 1.03 µM)
MBC [2, 21]: 2 µg/mL (≈ 2.07 µM)
S. aureus isolates with bactericidal activity (MBC/MIC ≤ 4) ([2]; selected S. aureus isolates): 58.3%
MBC/MIC ([2]; strain 1, MRSA, i-ermA): 4
MBC ([2]; strain 2, MSSA, i-ermC): 2 µg/mL (≈ 2.07 µM)
MBC/MIC ([2]; strain 2, MSSA, i-ermC): 8
MBC/MIC ([2]; strain 3, MSSA, i-ermC): 8
MBC/MIC ([2]; strain 4, MRSA, i-ermA): 4
MBC/MIC ([2]; strain 5, MRSA, i-ermC): 2
MBC/MIC ([2]; strain 6, MRSA, c-ermB): 8
MBC/MIC ([2]; strain 7, MRSA, c-ermB): > 8
MBC/MIC ([2]; strain 8, MSSA, c-ermB): 4
MBC/MIC ([2]; strain 9, MSSA, c-ermB): 4
MBC/MIC ([2]; strain 10, MRSA, c-ermB): 4
MBC/MIC ([2]; strain 11, MRSA, c-ermB): > 8
time-kill kinetics ([3]; constitutively erm-modified S. aureus 15B196): bactericidal
time-kill kinetics ([3]; induciblely erm-modified S. aureus PU32): bacteriostatic
IC50 [4]: 1.19 µM
IC50 [5]: > 100 µM
MIC ([6]; H. influenzae ATCC49247, Azi-S, listed as 88g): 4 µg/mL (≈ 4.14 µM)
MIC [6, 22]: 2 µg/mL (≈ 2.07 µM)
CC50 ([7]; HEK293T cell viability): 26 µM
cytotoxicity at 5 μM [7]: significantly reduced cytotoxicity compared to TcmX
dual-reporter inhibition zone colour [8]: red color inhibition zone

CC[C@H]1OC(=O)[C@H](C)C(=O)[C@H](C)[C@@H](O[C@@H]2O[C@H](C)C[C@H](N(C)C)[C@H]2O)[C@](C)(OC)C[C@@H](C)C(=O)[C@H](C)[C@H]2N(CCCCn3cnc(-c4cccnc4)c3)C(=O)O[C@]12C [telithromycin, reference compound]
MIC [2, 9]: 0.12 µg/mL (≈ 0.148 µM)
MBC ([2]; Staphylococcus aureus, MRSA, strain 1, MRSA, i-ermA, read-out: MBC): > 2 µg/mL
MIC ([2]; Staphylococcus aureus, MRSA, strain 1, MRSA, i-ermA, read-out: MIC): 0.25 µg/mL (≈ 0.308 µM)
MBC ([2]; Staphylococcus aureus, MRSA, strain 4, MRSA, i-ermA, read-out: MBC): > 1 µg/mL
MIC ([2]; Staphylococcus aureus, MRSA, strain 4, MRSA, i-ermA, read-out: MIC): 0.12 µg/mL (≈ 0.148 µM)
MBC ([2]; Staphylococcus aureus, MRSA, strain 5, MRSA, i-ermC, read-out: MBC): > 2 µg/mL
MIC ([2]; Staphylococcus aureus, MRSA, strain 5, MRSA, i-ermC, read-out: MIC): 0.25 µg/mL (≈ 0.308 µM)
MBC ([2]; Staphylococcus aureus, MRSA, strain 6, MRSA, c-ermB, read-out: MBC): > 64 µg/mL
MIC ([2]; Staphylococcus aureus, MRSA, strain 6, MRSA, c-ermB, read-out: MIC): 8 µg/mL (≈ 9.85 µM)
MBC ([2]; Staphylococcus aureus, MRSA, strain 7, MRSA, c-ermB, read-out: MBC): > 64 µg/mL
MIC ([2]; Staphylococcus aureus, MRSA, strain 7, MRSA, c-ermB, read-out: MIC): 8 µg/mL (≈ 9.85 µM)
MBC ([2]; Staphylococcus aureus, MRSA, strain 10, MRSA, c-ermB, read-out: MBC): > 128 µg/mL
MIC ([2]; Staphylococcus aureus, MRSA, strain 10, MRSA, c-ermB, read-out: MIC): 16 µg/mL (≈ 19.7 µM)
MIC [2, 16]: 128 µg/mL (≈ 158 µM)
MIC [2, 17]: 0.12 µg/mL (≈ 0.148 µM)
MIC [2, 18]: 0.12 µg/mL (≈ 0.148 µM)
MIC [2, 19]: > 256 µg/mL
MIC ([2]; Staphylococcus aureus, MSSA, strain 9, MSSA, c-ermB): > 256 µg/mL
MBC [2, 20]: > 1 µg/mL
MBC [2, 21]: > 1 µg/mL
MBC ([2]; strain 2, MSSA, i-ermC): > 1 µg/mL
MIC [6, 22]: 4 µg/mL (≈ 4.93 µM)

CC[C@H]1OC(=O)[C@H](C)[C@@H](OC(=O)NCCCOCCC#Cc2ccc3c(=O)c(C(=O)O)cn(C)c3c2)[C@H](C)[C@@H](O[C@@H]2O[C@H](C)C[C@H](N(C)C)[C@H]2O)[C@](C)(OC)C[C@@H](C)C(=O)[C@H](C)[C@H]2NC(=O)O[C@@]21C [MCX-190]
IC50 [4]: 0.67 µM
IC50 [5]: > 100 µM
cytotoxicity at 5 μM [7]: significantly reduced cytotoxicity compared to TcmX
dual-reporter inhibition zone colour [8]: red color inhibition zone
